Source: patent US20260306377A1, “ANTIMICROBIAL COMPOSITIONS CONTAINING A CATIONIC ANTIMICROBIAL AND AN ACIDIC GLYCOLOPID” (LANXESS CORPORATION, priority 2023, published 2026)

Tested on: mixed bacterial inoculum and mixed fungal inoculum
Assay: challenge test, overall result (bacteria and fungi)
Format: cell-based
Conditions: anionic xanthan gum lotion dosed with the substance(s)
Description: Preservative activity in representative formulations was evaluated by using a modification of the Personal Care Products Council (PCPC) protocol (Machtiger, et al. 2001. Determination of the Efficacy of Preservation of Non-Eye Area Water Miscible Cosmetic and Toiletry Formulations: Collaborative Study. J of AOAC International. 84:1, 101-109). The evaluation was conducted using a four week, two-cycle microbial preservative efficacy test (challenge test) at 25° C. to determine the preservative efficacy of each treatment.
Xanthan gum is commonly used as a natural rheological modifier in personal care products. The formulation below was made by heating the aqueous (A) and oil (B) phases separately to 75-80° C. The oil phase was then poured into the aqueous phase and mixed by an overhead mixer and a homogenizer. The oil-in-water emulsion was cooled to room temperature. Sodium hydroxide solution was used to adjust the pH.
Lotion formulation samples were dosed with certain test materials as shown further below and mixed thoroughly at room temperature, and the formulation samples were divided into two separate aliquots of 5 gram each. One aliquot was inoculated with 50 μl of a diluted bacterial pool, the second aliquot was inoculated with 50 μl of a diluted fungal pool as described below. Unpreserved product samples were included in the test as a growth control.
A mixed bacterial inoculum was prepared using 24-hour cultures of the test bacteria (Table 2) grown in trypticase soy broth (TSB). Equal volumes of the bacterial test strains were combined and diluted one to ten in phosphate buffer to obtain an inoculum of approximately 5×10^7 to 5×10^8 colony forming units per ml (cfu/ml). The test samples were inoculated with 1% of the mixed bacterial inoculum. A mixed fungal inoculum was prepared using cell suspensions of the yeast Candida albicans ATCC #10231 and the mold Aspergillus brasiliensis ATCC #16404 in phosphate buffer. Equal volumes of the fungal test strains were combined and diluted one to ten with phosphate buffer to obtain an inoculum of approximately 5×10^6 to 5×10^7 cfu/ml. The test samples were inoculated with […] of the mixed fungal inoculum.
The samples were subjected to microbial challenge at time zero and inoculated a second time after seven days. The number of microorganisms added to each sample was determined by a standard Most Probable Number (MPN) determination in Trypticase Soy Broth (TSB) for bacteria and Potato Dextrose Broth (PDB) for fungi. Samples were incubated at 25° C. for the test duration of four weeks. Samples were monitored for bacterial and fungal contamination after 2, 7, 14, 21, and 28 days. Samples challenged with bacteria were streak-plated onto Trypticase Soy Agar (TSA) and incubated at 30° C. for 24 hours. Samples challenged with fungi were streak-plated onto Potato Dextrose Agar (PDA) and incubated at 25° C. for 7 days. After incubation, plates were given a Growth Rating to determine the colony forming units per gram (CFU/g) present in each test sample at the testing time point. As is used by various challenge test methods, the passing criteria is more stringent for bacteria than for fungi. […]
For bacteria challenge testing, a composition was scored as “Pass” if the composition obtained a growth rating score caused by bacteria of 1 or less at days 21-28 of the testing period and was scored as “Fail” if the composition obtained a growth rating score caused by bacteria of 2 or more at days 21-28 of the testing period. […]

SMILES | challenge test outcome (in words)
CCCCCCCCCCCC(=O)N[C@@H](CCCN=C(N)N)C(=O)OCC.Cl [LAE, Ethyl lauroyl arginate HCl] | none of the lotion formulations passed the challenge test
CC(=O)c1ccc(O)cc1 [HAP, 4-Hydroxyacetophenone] | none of the lotion formulations passed the challenge test
N=C(NCCCCCCNC(=N)NC(=N)Nc1ccc(Cl)cc1)NC(=N)Nc1ccc(Cl)cc1.O=C(O)[C@H](O)[C@@H](O)[C@H](O)[C@H](O)CO.O=C(O)[C@H](O)[C@@H](O)[C@H](O)[C@H](O)CO [CHD.G, Chlorhexidine digluconate] | none of the lotion formulations passed the challenge test
O=C(O)c1ccccc1 [NaBz, Sodium benzoate] | none of the lotion formulations passed the challenge test
CCCCCCCC(=O)OCC(O)CO (centres unmarked) [GC, Glyceryl caprylate] | none of the lotion formulations passed the challenge test
